# Measurements: paper PMC8162731 (ACS chemical biology, 2020)
# Target: SnDHAD (Synechocystis sp. PCC 6803, UniProt P74689)
# Assay: DHAD activity inhibition assay
# Type: biochemical
# Settings: read-out: % inhibition at 0.5 mM
# Sequence of SnDHAD (P74689 whole entry): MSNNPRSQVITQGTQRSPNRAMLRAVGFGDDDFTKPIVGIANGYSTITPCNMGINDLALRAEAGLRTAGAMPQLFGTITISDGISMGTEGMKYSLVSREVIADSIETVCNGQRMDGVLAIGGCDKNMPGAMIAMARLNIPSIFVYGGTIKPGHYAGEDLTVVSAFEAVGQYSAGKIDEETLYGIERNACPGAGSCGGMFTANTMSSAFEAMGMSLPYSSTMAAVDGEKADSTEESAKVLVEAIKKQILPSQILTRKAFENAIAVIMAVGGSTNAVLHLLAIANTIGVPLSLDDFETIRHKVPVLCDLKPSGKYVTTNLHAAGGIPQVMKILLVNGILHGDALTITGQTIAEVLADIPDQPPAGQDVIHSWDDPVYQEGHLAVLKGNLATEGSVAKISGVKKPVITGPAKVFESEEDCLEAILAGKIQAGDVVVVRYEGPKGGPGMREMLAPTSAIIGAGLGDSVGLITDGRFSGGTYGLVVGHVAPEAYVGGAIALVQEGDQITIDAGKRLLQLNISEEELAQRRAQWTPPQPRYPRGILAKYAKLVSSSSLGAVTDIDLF
structure (smiles),measurement,value
O=C(O)C(O)C(=O)O [Tartronic acid],inhibition at 500 µM,~35%
